Assay results published in patent publication US12415785B2, “Compound modulators of sting” (CTXT PTY LTD, priority 2019, dated 2025).

How the values were obtained:
human STING (HAQ) [1] = target: T1, human STING (HAQ) (Homo sapiens, UniProt Q86WV6, G230A/H232R/R293Q); assay: Differential scanning fluorimetry (DSF), huSTING (HAQ); assay type: binding; conditions: 2 μM protein, compound 100 μM; Tm with ligand minus Tm of protein alone (1% DMSO); read-out: DSF huSTING (HAQ) ΔTm (° C.)
Outline: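 Recombinant His-TEV-tagged human STING allelic variants expressed in E. coli and purified by IMAC. Thermal unfolding followed by dye fluorescence (excitation 490 nm, emission 570 nm) from 20° C. to 100° C. in 0.5° C. steps, in triplicate, with and without ligand; Tm taken from the transition inflection point.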

human STING (HAQ) [2] = target: T1, human STING (HAQ); assay: Surface plasmon resonance (SPR), STING (HAQ); assay type: binding; conditions: biotinylated STING on streptavidin chip, 8° C.
Description: Biophysical experiments were performed with three different recombinant human STING protein variants designated according to allelic nomenclature of Yi et al., (2013). Codon optimized DNA sequences (for expression in Escherichia coli) encoding amino acid residues 149 to 345 (Swiss Prot Q86WV6) of human STING (WT), human STING (HAQ) and human STING (R232H) were synthesised by GenScript USA Inc (Piscataway, New Jersey, USA). These were ligated into a modified pET43a E. coli expression vector designed to encode N-terminal His tag followed by tobacco etch virus protease (TEV) cleavage site and a STING gene sequence. The resulting protein sequences for the three allelic variants are listed below:
Binding interactions of ligands with STING proteins were quantified using Surface Plasmon Resonance (SPR) with a minimally biotinylated STING protein immobilized on a streptavidin chip surface. […] Minimal biotinylation of purified huSTING proteins was performed using a previously described methodology (Chhabra 2012). Briefly, approximately 20 nmol of recombinant STING protein in 1×TBS buffer (25 mM Tris-HCl, pH 7.5, 150 mM NaCl, 5 mM DTT) was mixed with of EZ-Link™ Sulfo-NHS-LC-LC-Biotin (Thermofisher Scientific, cat #21338) at a molar ratio of 1 to 0.6 and incubated on ice for 2 hours. To remove any unreacted biotin reagent, protein/biotin mixture was passed through a Superdex 75 (10/300 GL) column equilibrated with 10 mM HEPES, pH7.4, 150 mM NaCl, 5 mM DTT, 5%[v/v] glycerol. A protein peak containing biotinylated huSTING protein was collected and stored in aliquots at −80° C.
Streptavidin was simultaneously immobilized in all four channels of a CM5 sensor chip docked in a Biacore instrument (either Biacore S200 or Biacore T200, GE Healthcare) as described previously (Zender 2013). […]
All binding experiments were performed at 8° C. in SPR binding buffer. To determine binding affinity, compound interaction with immobilized STING protein was analysed using dose-response experiments. […]

T1 sequence (Q86WV6 whole entry G230A/H232R/R293Q, looked up): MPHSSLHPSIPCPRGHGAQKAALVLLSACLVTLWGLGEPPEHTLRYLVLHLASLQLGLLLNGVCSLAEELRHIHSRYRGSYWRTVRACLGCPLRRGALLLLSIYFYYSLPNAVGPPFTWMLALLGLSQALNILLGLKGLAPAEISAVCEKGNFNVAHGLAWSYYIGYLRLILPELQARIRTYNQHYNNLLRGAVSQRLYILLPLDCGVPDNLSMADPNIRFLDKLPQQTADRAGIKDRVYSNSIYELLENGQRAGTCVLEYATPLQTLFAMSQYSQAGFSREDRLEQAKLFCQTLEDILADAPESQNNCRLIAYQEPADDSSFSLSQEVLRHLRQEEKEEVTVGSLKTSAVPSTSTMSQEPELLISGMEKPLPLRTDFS

| SMILES | ΔTm at 100 µM (human STING (HAQ) [1]) | Kd (human STING (HAQ) [2]) |
| --- | --- | --- |
| NC(=O)c1ccc2c(c1)nc(-c1cc(Br)ccc1C(=O)O)n2CCn1c(-c2cc(Br)ccc2C(=O)O)nc2cc(C(N)=O)ccc21 [Example 3, 2,2′-(Ethane-1,2-diylbis(5-carbamoyl-1H-benzo[d]imidazole-1,2-diyl))bis(4-bromobenzoic acid)] | 2.66 °C | > 10 µM |
| COc1c(C(N)=O)ccc2c1nc(-c1ccc(Cl)c(Cl)c1-c1nn[nH]n1)n2CCn1c(-c2ccc(Cl)c(Cl)c2-c2nn[nH]n2)nc2c(OC)c(C(N)=O)ccc21 [Example 37, 1,1′-(Ethane-1,2-diyl)bis(2-(3,4-dichloro-2-(2H-tetrazol-5-yl)phenyl)-4-methoxy-1H-benzo[d]imidazole-5-carboxamide)] | 2.8 °C | 0.2 µM |
| COc1c(C(N)=O)ccc2c1nc(-c1ccc(C(F)(F)F)cc1C(=O)O)n2CCn1c(-c2ccc(C(F)(F)F)cc2C(=O)O)nc2c(OC)c(C(N)=O)ccc21 [Example 38, 6,6′-(Ethane-1,2-diylbis(5-carbamoyl-4-methoxy-1H-benzo[d]imidazole-1,2-diyl))bis(3-(trifluoromethyl)benzoic acid)] | 3.68 °C | > 100 µM |
